Results: patent publication US12122816B2, “Long acting peptide tyrosine tyrosine (PYY) analogs and methods of use” (Intarcia Therapeutics, Inc., priority 2020, dated 2024)
Starred links: 1 amine or outer side, 2 acyl side, 3 side chain; linkers in the order of their positions; H or OH if unused. Residues, ends and D or L forms follow the SMILES beside them. Groups on a side chain read outwards from the residue. *: point of attachment. C20 diacid = O=C(O)CCCCCCCCCCCCCCCCCCC(=O)*; γGlu = O=C(O)[C@H](CCC(=O)[*:2])N[*:1]

Columns and labels:
Assay in all cases: NPY receptor functional assay (cAMP, HEK-CNG cells, ACTOne membrane potential dye)
Format in all cases: cell-based
[1] = target: T1, human Y2 receptor (Homo sapiens, UniProt P49146); conditions: NPY2R pEC50, HEK-CNG cells; standard PYY(3-36); species (human or rat) not given
T1 sequence (P49146 1-381): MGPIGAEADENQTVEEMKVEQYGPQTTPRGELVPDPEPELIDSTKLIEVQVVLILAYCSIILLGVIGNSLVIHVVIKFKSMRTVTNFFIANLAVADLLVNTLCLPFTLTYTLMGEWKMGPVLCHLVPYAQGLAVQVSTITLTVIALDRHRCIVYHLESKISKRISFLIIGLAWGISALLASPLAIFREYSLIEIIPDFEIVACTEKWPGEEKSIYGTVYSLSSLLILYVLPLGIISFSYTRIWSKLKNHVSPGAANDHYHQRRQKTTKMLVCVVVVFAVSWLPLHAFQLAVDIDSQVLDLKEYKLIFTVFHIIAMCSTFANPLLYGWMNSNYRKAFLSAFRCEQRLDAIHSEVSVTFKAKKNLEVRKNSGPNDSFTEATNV
Summary of the method: (§1)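 HEK-CNG cells stably expressing each human receptor; peptides added in triplicate for 50 minutes at room temperature, with agonism read as decreased isoproterenol-induced membrane potential dye signal (final/initial read).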

[2] = target: human Y4 receptor (Homo sapiens, UniProt P50391); conditions: standard PP, species (human or rat) not given
Sequence of human Y4 receptor (P50391 whole entry): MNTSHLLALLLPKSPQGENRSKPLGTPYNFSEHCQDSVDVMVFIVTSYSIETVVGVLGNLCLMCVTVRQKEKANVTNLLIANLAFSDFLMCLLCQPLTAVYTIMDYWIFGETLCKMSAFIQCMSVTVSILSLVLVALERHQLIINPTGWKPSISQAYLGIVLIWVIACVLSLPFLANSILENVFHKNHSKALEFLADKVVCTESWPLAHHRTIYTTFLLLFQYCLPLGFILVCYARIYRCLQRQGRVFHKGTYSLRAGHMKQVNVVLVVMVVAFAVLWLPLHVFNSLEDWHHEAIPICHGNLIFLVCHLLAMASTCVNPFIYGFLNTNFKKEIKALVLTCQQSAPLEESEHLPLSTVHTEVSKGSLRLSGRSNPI
Summary of the method: as §1

[3] = target: T2, human Y5 receptor (Homo sapiens, UniProt Q15761); conditions: NPY5R pEC50, HEK-CNG cells; standard NPY; species (human or rat) not given
T2 sequence (Q15761 1-445): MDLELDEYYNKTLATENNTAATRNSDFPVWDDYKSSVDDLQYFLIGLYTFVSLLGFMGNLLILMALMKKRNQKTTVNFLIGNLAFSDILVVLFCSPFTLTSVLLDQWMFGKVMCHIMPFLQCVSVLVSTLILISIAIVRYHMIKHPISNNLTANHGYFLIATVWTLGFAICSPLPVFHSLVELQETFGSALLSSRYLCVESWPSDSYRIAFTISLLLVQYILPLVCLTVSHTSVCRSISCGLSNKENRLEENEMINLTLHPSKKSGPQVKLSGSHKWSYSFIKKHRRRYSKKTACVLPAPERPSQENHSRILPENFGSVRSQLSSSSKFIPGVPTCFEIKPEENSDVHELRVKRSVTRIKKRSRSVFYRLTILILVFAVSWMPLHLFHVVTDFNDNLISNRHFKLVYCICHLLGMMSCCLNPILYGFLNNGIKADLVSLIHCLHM
Summary of the method: as §1

| Compound | EC50 [1] [µM] | NPY4R pEC50 [2] | EC50 [3] [µM] |
| --- | --- | --- | --- |
| CC(C)C[C@H](NC(=O)[C@H](CC(=O)O)NC(=O)[C@H](C)NC(=O)[C@H](Cc1ccc(O)cc1)NC(=O)[C@H](Cc1ccc(O)cc1)NC(=O)[C@H](CCCNC(=N)N)NC(=O)[C@H](CC(N)=O)NC(=O)[C@H](Cc1c[nH]c2ccccc12)NC(=O)[C@H](CCC(=O)O)NC(=O)[C@H](CCC(=O)O)NC(=O)[C@@H]1CCCN1C(=O)[C@H](CO)NC(=O)[C@H](C)NC(=O)[C@H](CC(=O)O)NC(=O)[C@H](CCCCN)NC(=O)CNC(=O)[C@@H]1CCCN1C(=O)[C@H](C)NC(=O)[C@H](CCC(=O)O)NC(=O)[C@@H]1CCCN1C(=O)[C@H](CCCCN)NC(=O)[C@@H]1CCCN1)C(=O)N[C@@H](CCCCNC(=O)CC[C@H](NC(=O)CC[C@H](NC(=O)CCCCCCCCCCCCCCCCCCC(=O)O)C(=O)O)C(=O)O)C(=O)N[C@@H](Cc1c[nH]cn1)C(=O)N[C@@H](Cc1ccc(O)cc1)C(=O)N[C@@H](CC(C)C)C(=O)N[C@@H](CC(N)=O)C(=O)N[C@@H](Cc1c[nH]c2ccccc12)C(=O)N[C@@H](CC(C)C)C(=O)N[C@H](C(=O)N[C@@H](CCCNC(=N)N)C(=O)N[C@@H](CCC(N)=O)C(=O)N[C@@H](CCCNC(=N)N)C(=O)N[C@@H](Cc1ccccc1)C(N)=O)[C@@H](C)O [Compound A53] | 0.002 | inactive | 0.0501 |
| CC(C)C[C@H](NC(=O)[C@H](CC(=O)O)NC(=O)[C@H](CCCCNC(=O)CC[C@H](NC(=O)CC[C@H](NC(=O)CCCCCCCCCCCCCCCCCCC(=O)O)C(=O)O)C(=O)O)NC(=O)[C@H](Cc1ccc(O)cc1)NC(=O)[C@H](Cc1ccc(O)cc1)NC(=O)[C@H](CCCNC(=N)N)NC(=O)[C@H](CC(N)=O)NC(=O)[C@H](Cc1c[nH]c2ccccc12)NC(=O)[C@H](CCC(=O)O)NC(=O)[C@H](CCC(=O)O)NC(=O)[C@@H]1CCCN1C(=O)[C@H](CO)NC(=O)[C@H](C)NC(=O)[C@H](CC(=O)O)NC(=O)[C@H](CCCCN)NC(=O)CNC(=O)[C@@H]1CCCN1C(=O)[C@H](C)NC(=O)[C@H](CCC(=O)O)NC(=O)[C@@H]1CCCN1C(=O)[C@H](CCCCN)NC(=O)[C@@H]1CCCN1)C(=O)N[C@@H](CCCNC(=N)N)C(=O)N[C@@H](Cc1c[nH]cn1)C(=O)N[C@@H](Cc1ccc(O)cc1)C(=O)N[C@@H](CC(C)C)C(=O)N[C@@H](CC(N)=O)C(=O)N[C@@H](Cc1c[nH]c2ccccc12)C(=O)N[C@@H](CC(C)C)C(=O)N[C@H](C(=O)N[C@@H](CCCNC(=N)N)C(=O)N[C@@H](CCC(N)=O)C(=O)N[C@@H](CCCNC(=N)N)C(=O)N[C@@H](Cc1ccccc1)C(N)=O)[C@@H](C)O [Compound A54] | 0.02 | inactive | 0.01 |
| CC(C)C[C@H](NC(=O)[C@H](CC(=O)O)NC(=O)[C@H](C)NC(=O)[C@H](Cc1ccc(O)cc1)NC(=O)[C@H](Cc1ccc(O)cc1)NC(=O)[C@H](CCCNC(=N)N)NC(=O)[C@H](CCCCNC(=O)CC[C@H](NC(=O)CC[C@H](NC(=O)CCCCCCCCCCCCCCCCCCC(=O)O)C(=O)O)C(=O)O)NC(=O)[C@H](Cc1c[nH]c2ccccc12)NC(=O)[C@H](CCC(=O)O)NC(=O)[C@H](CCC(=O)O)NC(=O)[C@@H]1CCCN1C(=O)[C@H](CO)NC(=O)[C@H](C)NC(=O)[C@H](CC(=O)O)NC(=O)[C@H](CCCCN)NC(=O)CNC(=O)[C@@H]1CCCN1C(=O)[C@H](C)NC(=O)[C@H](CCC(=O)O)NC(=O)[C@@H]1CCCN1C(=O)[C@H](CCCCN)NC(=O)[C@@H]1CCCN1)C(=O)N[C@@H](CCCNC(=N)N)C(=O)N[C@@H](Cc1c[nH]cn1)C(=O)N[C@@H](Cc1ccc(O)cc1)C(=O)N[C@@H](CC(C)C)C(=O)N[C@@H](CC(N)=O)C(=O)N[C@@H](Cc1c[nH]c2ccccc12)C(=O)N[C@@H](CC(C)C)C(=O)N[C@H](C(=O)N[C@@H](CCCNC(=N)N)C(=O)N[C@@H](CCC(N)=O)C(=O)N[C@@H](CCCNC(=N)N)C(=O)N[C@@H](Cc1ccccc1)C(N)=O)[C@@H](C)O [Compound A55] | 0.00126 | inactive | 0.02 |
| CC(C)C[C@H](NC(=O)[C@H](Cc1ccc(O)cc1)NC(=O)[C@H](Cc1c[nH]cn1)NC(=O)[C@H](CCCNC(=N)N)NC(=O)[C@H](C)NC(=O)[C@H](CC(=O)O)NC(=O)[C@H](C)NC(=O)[C@H](Cc1ccc(O)cc1)NC(=O)[C@H](Cc1ccc(O)cc1)NC(=O)[C@H](CCCNC(=N)N)NC(=O)[C@H](CC(N)=O)NC(=O)[C@H](CC(C)C)NC(=O)[C@H](CCC(=O)O)NC(=O)[C@H](CCC(=O)O)NC(=O)[C@@H]1CCCN1C(=O)[C@H](CO)NC(=O)[C@H](C)NC(=O)[C@H](CC(=O)O)NC(=O)[C@H](CCCCN)NC(=O)[C@H](CCCCNC(=O)CC[C@H](NC(=O)CC[C@H](NC(=O)CCCCCCCCCCCCCCCCCCC(=O)O)C(=O)O)C(=O)O)NC(=O)[C@@H]1CCCN1C(=O)[C@H](C)NC(=O)[C@H](CCC(=O)O)NC(=O)[C@@H]1CCCN1C(=O)[C@H](CCCCN)NC(=O)[C@@H]1CCCN1)C(=O)N[C@@H](CC(N)=O)C(=O)N[C@@H](Cc1c[nH]c2ccccc12)C(=O)N[C@@H](CC(C)C)C(=O)N[C@H](C(=O)N[C@@H](CCCNC(=N)N)C(=O)N[C@@H](CCC(N)=O)C(=O)N[C@@H](CCCNC(=N)N)C(=O)N[C@@H](Cc1ccccc1)C(N)=O)[C@@H](C)O [Compound A64] (H-PKPEAPK([γGlu-γGlu-C20 diacid])KDASPEELNRYYADARHYLNWLTRQRF-NH2; N-terminus assumed) | 0.00251 | inactive | 0.0126 |
